Data taken from US8288107B2, “Materials and methods for detecting interaction of CFTR polypeptides” (Florida State University Research Foundation, priority 1999, dated 2012).

Assays:
YRG2-ΔF strain = assay: Colony formation on SC-HIS-LEU-TRP media, YRG2-ΔF strain; assay type: cell-based, yeast; conditions: 1.5 mM in SC-HIS-LEU-TRP media; 30° C.; three days
Description: (§1) When the YRG2-ΔF strain was streaked onto solid media (SC-HIS, -LEU, -TRP) and incubated at 21° C., colonies formed within three days (Table 2). The YRG2-ΔF colonies were approximately the same size as colonies produced by YRG2-WT grown under the same conditions. However, when YRG2-ΔF was streaked onto SC-HIS-LEU-TRP solid media and incubated at 30° C., only small colonies were apparent after three days (substantially smaller in size than YRG2-WT colonies grown under the same growth conditions). Colonies were not apparent (or were detectable only as extremely small micro-colonies) when YRG2-ΔF was streaked onto solid SC-HIS, -LEU, -TRP media and incubated at 34° C. The ΔF508 mutation thus conferred a temperature-sensitive HIS+ phenotype to the yeast strain containing pADPN-ΔF and pBDPN-ΔF. To further enhance the temperature-sensitive HIS− colony phenotype of the YRG2-ΔF strain relative to the YRG2-WT strain, it is advantageous to incorporate 3-amino-1,2,4-triazole at a concentration of 1.5 mM into the SC-HIS-LEU-TRP media.
To use the YRG2-ΔF strain for screening purposes, a lawn of the YRG2-ΔF strain is spread onto selective media. This media contains yeast nitrogen base and all amino acids except for histidine, leucine, and tryptophan. The media also contains 3-amino 1,2,4-triazole at a concentration of 1.5 mM. […]

YRG2-WT strain = assay: Colony formation on SC-HIS-LEU-TRP media, YRG2-WT strain; assay type: cell-based, yeast; conditions: 1.5 mM in SC-HIS-LEU-TRP media; 30° C.; three days
Description: as §1

[1] = molecular target: T1, NBD1 ΔF508 domain of CFTR (dimerization) (Homo sapiens, UniProt P13569, DEL508-508/V470M); assay: Yeast two-hybrid growth assay with YRG2-ΔF strain on selective media lacking histidine; assay type: cell-based; conditions: 1.5M glycerol in growth media; 37° C.; media lacking leucine, tryptophan and histidine
T1 construct: expressed in transfected cells; host or cells: Saccharomyces cerevisiae strain YRG2 (Stratagene), transformed with pBDPN-ΔF and pADPN-ΔF = YRG2-ΔF
Description: FIGS. 2A-2C show growth of two-hybrid yeast strains containing wildtype and mutant CFTR NBD1. The yeast strain YRG2 was transformed with pADGAL4 and pBDGAL4 constructs containing wildtype and mutant CFTR NBD1 as indicated. Each strain was grown in synthetic complete media lacking leucine and tryptophan, and equal aliquots of cells in 10-fold dilutions were spotted to synthetic complete media lacking leucine, tryptophan and histidine. Dilutions for each strain proceed from right to left, with the spots from most dilute cultures corresponding to the tapered end of the triangle. Plates were incubated at either 21° C. (FIG. 2A) or 37° C. (FIG. 2B) (for 3 days and 5 days respectively). Glycerol was added to the media to a final concentration of 1.5 M as indicated (1.5 M Glyc) (FIG. 2C).
The present invention concerns methods for screening chemical compounds for drug candidates with activity to correct the dimerization defect associated with mutant CFTR NBD1 containing the ΔF508 mutation. […] If the sample tested is a pure compound, the compound can then be analyzed further in secondary assays to determine its activity to restore CFTRΔF508 cAMP-stimulated chloride channel activity in mammalian cells expressing CFTRΔF508 (Sheppard et al., 1994). […]

T1 sequence (P13569 with tags, fused parts or gaps V470M/DEL508-508): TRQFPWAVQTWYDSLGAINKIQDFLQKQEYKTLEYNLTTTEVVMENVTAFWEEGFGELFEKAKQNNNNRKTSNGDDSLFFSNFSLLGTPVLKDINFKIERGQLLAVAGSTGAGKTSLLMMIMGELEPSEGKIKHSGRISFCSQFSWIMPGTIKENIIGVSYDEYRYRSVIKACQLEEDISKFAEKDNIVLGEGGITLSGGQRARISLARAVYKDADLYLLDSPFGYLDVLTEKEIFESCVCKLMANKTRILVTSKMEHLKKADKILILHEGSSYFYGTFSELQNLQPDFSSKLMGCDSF
T1 sequence (P13569 with tags, fused parts or gaps V470M/DEL508-508): as above

`Nc1nc[nH]n1` [3-amino-1,2,4-triazole] was tested, and the “colony formation of YRG2-ΔF strain” value (YRG2-ΔF strain) was “prevents colony formation” and the “colony formation of YRG2-WT strain” value (YRG2-WT strain) was “does not inhibit colony formation”.
With `OCC(O)CO` [glycerol] the “rescue of temperature-sensitive dimerization of mutant NBD1 containing ΔF508” value [1] was “rescued”.
